Laboratory results taken from patent US20050232912A1, “Enzyme phosphorylating ser46 of p53” (priority 2001, published 2005).

Tested on: Human breast cancer cells MCF-7
Experiment: Ser46-phosphorylating activity of nuclear extracts from doxorubicin-treated cells, Western blotting with anti-p53-phosphorylated-Ser46 antibodies
Format: cell-based
Details: MCF-7 cells, 3 μM doxorubicin, during 12 hours after treatment, substrate GST-p53
Procedure: Human breast cancer cells MCF-7 (hereinafter called “MCF-7”, ATCC) were cultured in DMEM medium (Sigma) containing 10% fetal bovine serum (GIBCO BRL) on 15 cm^2 dishes (Corning) up to 90% confluent state. These cells were treated with final 3 μM doxorubicin (Sigma, the same to adriamycin) by addition of its aqueous solution to the medium. After allowed to stand in an incubator, the cells were harvested at various time points.
The harvested cells from one dish were suspended and solubilized in 500 μl of cytoplasm extraction buffer (10 mM HEPES pH7.9, 2 mM MgCl2, 0.1 mM EDTA, 0.1 mM EGTA, 1% Nonidet NP-40, DTT 1 mM, Na3VO4 1 mM, NaF 5 mM, PMSF 0.5 mM, KCl 10 mM, leupeptin 5 μg/ml, antipain 5 μg/ml, chymostatin 5 μg/ml, pepstatinA 2 μg/ml). The solbilized cells were centrifuged at 15,000 rpm for 15 min. The pellets obtained were mixed with 100 μl nuclear extraction buffer (10 mM HEPES pH7.9, 2 mM MgCl2, 0.1 mM EDTA, 0.1 mM EGTA, 1% Nonidet NP-40, DTT 1 mM, Na3VO4 1 mM, NaF 5 mM, PMSF 0.5 mM, KCl 10 mM, NaCl 500 mM, leupeptin 5 μg/ml, antipain 5 μg/ml, chymostatin 5 μg/ml, pepstatinA 2 μg/ml), suspended well and centrifuged at 15,000 rpm for 15 min. […]
Next, the enzyme activity of the nuclear extracts was assayed using the antibodies. […] The phosphorylation of GST-p53 was detected in Western blotting probed with anti-p53-phosphorylated-Ser46 antibodies.

COc1cccc2c1C(=O)c1c(O)c3c(c(O)c1C2=O)C[C@@](O)(C(=O)CO)C[C@@H]3O[C@H]1C[C@H](N)[C@H](O)[C@H](C)O1 [doxorubicin]
activation of enzyme phosphorylating Ser46 of p53: greatly induced
